± gives the standard deviation of the averaged measurements.
Key:
CRIZOTINIB = compound: C[C@@H](Oc1cc(-c2cnn(C3CCNCC3)c2)cnc1N)c1c(Cl)ccc(F)c1Cl [CRIZOTINIB]; test: surviving fraction relative to DMSO-only wells; higher = less growth inhibition; settings: exposure time: 5 days
Procedure, shortened: (§1)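 Viability was determined by CellTiter-Glo luminescence, expressed as surviving fraction normalised to the median of DMSO-only wells. The cells were log-phase tumour cell lines seeded at 250–500 per well in 384-well plates and, after 24 hours, exposed continuously for five days to inhibitors at 0.5, 1, 5, 10, 50, 100, 500 and 1000 nM. Three screens per line were run, keeping only lines with replicate Pearson r >0.7 and median Z' >0.3.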

XAV-939 = compound: Oc1nc(-c2ccc(C(F)(F)F)cc2)nc2c1CSCC2 [XAV-939]; test: as above; settings: exposure time: 5 days
Procedure, shortened: as §1

Row | Test System | surviving fraction (CRIZOTINIB; 0.5 nM) | surviving fraction (CRIZOTINIB; 1 nM) | surviving fraction (CRIZOTINIB; 5 nM) | surviving fraction (CRIZOTINIB; 10 nM) | surviving fraction (CRIZOTINIB; 50 nM) | surviving fraction (CRIZOTINIB; 100 nM) | surviving fraction (CRIZOTINIB; 500 nM) | surviving fraction (CRIZOTINIB; 1000 nM) | surviving fraction (XAV-939; 0.5 nM) | surviving fraction (XAV-939; 1 nM) | surviving fraction (XAV-939; 5 nM) | surviving fraction (XAV-939; 10 nM) | surviving fraction (XAV-939; 50 nM) | surviving fraction (XAV-939; 100 nM) | surviving fraction (XAV-939; 500 nM) | surviving fraction (XAV-939; 1000 nM)
1 | G292 BONE | 1.02 ± 0.037 | 1.04 ± 0.055 | 1.07 ± 0.012 | 1.08 ± 0.038 | 0.9452 ± 0.0094 | 0.951 ± 0.033 | 0.634 ± 0.025 | 0.41 ± 0.016 | 0.788 ± 0.26 | 0.995 ± 0.045 | 0.96 ± 0.043 | 0.963 ± 0.066 | 0.818 ± 0.27 | 0.965 ± 0.04 | 0.917 ± 0.027 | 0.874 ± 0.046
2 | HCC38 BREAST | 1.27 ± 0.15 | 1.18 ± 0.06 | 1.31 ± 0.069 | 1.28 ± 0.041 | 1.29 ± 0.13 | 1.28 ± 0.13 |  | 0.63 ± 0.09 | 0.824 ± 0.32 | 0.996 ± 0.18 | 1.01 ± 0.2 | 1.07 ± 0.23 | 0.983 ± 0.034 | 0.925 ± 0.15 | 0.895 ± 0.085 | 0.855 ± 0.12
3 | HCC70 BREAST | 1.09 ± 0.06 | 1.1 ± 0.13 | 1.16 ± 0.022 |  | 1.18 ± 0.1 |  | 1.07 ± 0.059 | 0.818 ± 0.12 | 1.02 ± 0.083 | 1.09 ± 0.11 | 1.07 ± 0.026 | 1.13 ± 0.067 | 1.13 ± 0.029 | 1.12 ± 0.11 | 0.871 ± 0.091 | 0.829 ± 0.12
4 | HMLE3 BREAST | 1.07 ± 0.043 |  | 1.18 ± 0.081 | 1.07 ± 0.089 | 1.05 ± 0.054 | 1.04 ± 0.12 | 0.828 ± 0.062 | 0.649 ± 0.046 | 0.921 ± 0.048 | 0.956 ± 0.028 | 0.97 ± 0.036 | 0.969 ± 0.059 | 0.986 ± 0.047 | 0.984 ± 0.078 | 0.775 ± 0.054 | 0.734 ± 0.037
5 | HMT3552 BREAST | 1.01 ± 0.042 | 1.05 ± 0.073 | 1.04 ± 0.015 | 1.06 ± 0.015 | 1.07 ± 0.023 | 1.18 ± 0.035 | 0.597 ± 0.045 | 0.201 ± 0.012 | 1.1 | 1.12 | 1.1 | 1.02 | 1.18 | 1.1 | 1.07 | 1.09
6 | HS57T BREAST | 1 ± 0.02 | 1.09 ± 0.056 | 1.14 ± 0.026 | 1.07 ± 0.025 |  |  | 0.676 ± 0.011 | 0.56 ± 0.046 | 1.07 ± 0.023 | 1.11 ± 0.083 | 1.06 ± 0.039 | 1.02 ± 0.057 | 1.09 ± 0.046 | 1.054 ± 0.0092 | 0.889 ± 0.017 | 0.843 ± 0.075
7 | HS578T BREAST | 1.04 ± 0.16 | 1.13 ± 0.17 | 1.13 ± 0.11 | 1.14 ± 0.18 | 1.07 ± 0.25 | 0.994 ± 0.14 | 0.833 ± 0.066 | 0.722 ± 0.021 | 1.16 ± 0.15 | 1.03 ± 0.2 | 1.14 ± 0.064 | 1.33 ± 0.062 | 1.14 ± 0.13 | 1.21 ± 0.058 | 1.09 ± 0.069 | 0.972 ± 0.016

Reference: the supplement of paper PMC6045584
